Measurements from US8916702B2 (priority 2012, dated 2014).
Read-outs that look alike come from different tables or passages of the source.

Test system: HCV pseudoparticles (genotype 1a HCV E1 and E2 envelope, H77C isolate)
Assay: microbe, parasite or virus in culture
Type: cell-based
Settings: Hepatitis C virus
[1] = Huh-7, 48 h, read-out: Activity (EC50 class), HCV pseudoparticle infection of Huh7 cells, luciferase 2 days after infection, EC50 expressed as class A/B
[2] = Huh-7, read-out: Activity (EC50 class), HCV pseudoparticles (genotype 1a, H77C) in Huh7 cells, EC50 expressed as class A/B
[3] = Huh-7, 48 h, HCV pseudoparticles (genotype 1a, H77C) in Huh7 cells, average of duplicate, luciferase 2 days after infection
[4] = Huh-7, 48 h, read-out: Activity (EC50 class), HCV pseudoparticles, Huh7 cells, luciferase 2 days after infection, average of duplicates
[5] = Huh-7, 48 h, HCV pseudoparticles, Huh7 cells, luciferase 2 days after infection, average of duplicates
[6] = Huh-7, 48 h, HCV pseudoparticle infection of Huh7 cells, luciferase 2 days after infection, average of duplicates

Structure (SMILES) | EC50 [1] | EC50 [2] | also measured
O=C(NCC[C@H](NC(=O)c1ccc(Nc2nc(NC3(c4ccc(Cl)cc4)CC3)nc(OCC(F)(F)F)n2)cc1)C(=O)O)C(=O)Nc1cccnc1 [Compound 1280] | 0.01 to 10 nM | – | –
COC(=O)/C(CCNC(=O)C(=O)Nc1cccc(Cc2ccccc2)c1)=N\C(=O)c1ccc(Nc2nc(NC3(c4ccc(Cl)cc4)CC3)nc(OCC(F)(F)F)n2)cc1 [Compound 3592] | – | 10 to 1000 nM | –
Cc1cc(NC(=O)C(=O)NCC(C)CNC(=O)c2ccc(Nc3nc(NC4(c5ccc(Cl)cc5)CC4)nc(OCC(F)(F)F)n3)cc2)no1 (stereo not shown) [Compound 3334] | – | 0.01 to 10 nM | EC50 [3]: 0.062 nM
O=C(NCC[C@H](NC(=O)c1ccc(Nc2nc(NC3(c4ccc(Cl)cc4)CC3)nc(OCC(F)(F)F)n2)cc1)C(=O)O)C(=O)NCC1CC1c1ccc(F)cc1 (stereo partly shown) [Compound 1438] | 0.01 to 10 nM | – | –
COC(=O)[C@H](CCNC(=O)C(=O)Nc1cccc(OC)c1)NC(=O)c1ccc(Nc2nc(NC3(c4ccc(Cl)cc4)CC3)nc(OCC(F)(F)F)n2)cc1 [Compound 1228] | 0.01 to 10 nM | – | –
COC(=O)[C@H](CCNC(=O)C(=O)NC1(Cc2ccccc2)CC1)NC(=O)c1ccc(Nc2nc(NC3(c4ccc(Cl)cc4)CC3)nc(OCC(F)(F)F)n2)cc1 [Compound 1325] | 0.01 to 10 nM | – | –
CC(C)(CNC(=O)C(=O)NCc1cccc(Cl)c1)CNC(=O)c1ccc(Nc2nc(NC3(c4ccc(Cl)cc4)CC3)nc(OCC(F)(F)F)n2)cc1 [Compound 3020] | – | 0.01 to 10 nM | –
CC(C)(CNC(=O)C(=O)NCc1ccc(C(=N)N)cc1)CNC(=O)c1ccc(Nc2nc(NC3(c4ccc(Cl)cc4)CC3)nc(OCC(F)(F)F)n2)cc1 [Compound 3043] | – | 0.01 to 10 nM | –
CC(C)(C)c1cccc(NC(=O)C(=O)NC[C@H](NC(=O)c2ccc(Nc3nc(NC4(c5ccc(Cl)cc5)CC4)nc(OCC(F)(F)F)n3)cc2)C(=O)O)c1 [Compound 3760] | – | – | EC50 [4]: 0.01 to 10 nM
O=C(NCC[C@H](NC(=O)c1ccc(Nc2nc(NC3(c4ccc(Cl)cc4)CC3)nc(OCC(F)(F)F)n2)cc1)C(=O)O)C(=O)Nc1cccc(-n2ccnc2)c1 [Compound 3659] | – | – | EC50 [4]: 0.01 to 10 nM
COC(=O)[C@H](CNC(=O)C(=O)Nc1ccc(OC(F)F)cc1)NC(=O)c1ccc(Nc2nc(NC3(c4ccc(Cl)cc4)CC3)nc(OCC(F)(F)F)n2)cc1 [Compound 3215] | – | 0.01 to 10 nM | –
O=C(NCC[C@H](NC(=O)c1ccc(Nc2nc(NC3(c4ccc(Cl)cc4)CC3)nc(OCC(F)(F)F)n2)cc1)C(=O)O)C(=O)NC(CCO)C1CC1 (stereo partly shown) [Compound 1439] | 0.01 to 10 nM | – | –
O=C(NCC[C@@H](NC(=O)c1ccc(Nc2nc(NC3(c4ccc(Cl)cc4)CC3)nc(OCC(F)(F)F)n2)cc1)C(=O)O)C(=O)Nc1cc(F)c(F)c(F)c1F [Compound 3051] | – | 0.01 to 10 nM | –
Cn1cnc(NC(=O)C(=O)NCC(C)(C)CNC(=O)c2ccc(Nc3nc(NC4(c5ccc(Cl)cc5)CC4)nc(OCC(F)(F)F)n3)cc2)c1 [Compound 3178] | – | 0.01 to 10 nM | –
COC(=O)[C@H](CCNC(=O)C(=O)Nc1cncn1C)NC(=O)c1ccc(Nc2nc(NC3(c4ccc(Cl)cc4)CC3)nc(OCC(F)(F)F)n2)cc1 [Compound 1225] | 0.01 to 10 nM | – | –
CC(C)(CNC(=O)C(N)=O)CNC(=O)c1ccc(Nc2nc(NC3(c4ccc(Cl)cc4)CC3)nc(OCC(F)(F)F)n2)cc1 [Compound 1552, N^1-(3-(4-((4-((1-(4-chlorophenyl)cyclopropyl)amino)-6-(2,2,2-trifluoroethoxy)-1,3,5-triazin-2-yl)amino)benzamido)-2,2-dimethylpropyl)oxalamide] | 0.01 to 10 nM | – | –
Cc1cc(C)nc(N(C)c2ccc(NC(=O)C(=O)NCC[C@H](NC(=O)c3ccc(Nc4nc(NC5(c6ccc(Cl)cc6)CC5)nc(OCC(F)(F)F)n4)cc3)C(=O)O)cc2)n1 [Compound 3234] | – | 0.01 to 10 nM | EC50 [3]: 0.24 nM
CNC(=O)C(=O)NCC(C)(C)CNC(=O)c1ccc(Nc2nc(NC3(c4ccc(Cl)cc4)CC3)nc(OCC(F)(F)F)n2)cc1 [Compound 1553] | 0.01 to 10 nM | – | –
CC(C)(CNC(=O)C(=O)Nc1ccc(OC(F)F)cc1)CNC(=O)c1ccc(Nc2nc(NC3(c4ccc(Cl)cc4)CC3)nc(OCC(F)(F)F)n2)cc1 [Compound 3146] | – | 0.01 to 10 nM | EC50 [3]: 0.05 nM
COC(=O)[C@H](CNC(=O)C(=O)NC1CC(C)CC(C)(C)C1)NC(=O)c1ccc(Nc2nc(NC3(c4ccc(Cl)cc4)CC3)nc(OCC(F)(F)F)n2)cc1 (stereo partly shown) [Compound 1060] | 0.01 to 10 nM | – | –
Cc1nccn1CCNC(=O)C(=O)NCC[C@H](NC(=O)c1ccc(Nc2nc(NC3(c4ccc(Cl)cc4)CC3)nc(OCC(F)(F)F)n2)cc1)C(=O)O [Compound 1344] | 0.01 to 10 nM | – | –
COc1ccc(CNC(=O)C(=O)NCC[C@H](NC(=O)c2ccc(Nc3nc(NC4(c5ccc(Cl)cc5)CC4)nc(OCC(F)(F)F)n3)cc2)C(=O)O)cc1OC [Compound 1184] | 0.01 to 10 nM | – | –
COC(=O)[C@H](CCNC(=O)C(=O)Nc1ccc(Cn2ccnc2)cc1)NC(=O)c1ccc(Nc2nc(NC3(c4ccc(Cl)cc4)CC3)nc(OCC(F)(F)F)n2)cc1 [Compound 3319] | – | 0.01 to 10 nM | –
COc1cccc(-c2ccccc2NC(=O)C(=O)NCC(C)(C)CNC(=O)c2ccc(Nc3nc(NC4(c5ccc(Cl)cc5)CC4)nc(OCC(F)(F)F)n3)cc2)c1 [Compound 3049] | – | 0.01 to 10 nM | –

Structure (SMILES) | EC50 [1] | EC50 [2] | also measured
CC(C)(CNC(=O)C(=O)Nc1ccccc1-n1cccn1)CNC(=O)c1ccc(Nc2nc(NC3(c4ccc(Cl)cc4)CC3)nc(OCC(F)(F)F)n2)cc1 [Compound 3015] | – | 0.01 to 10 nM | –
Cc1c(Cl)ccc2sc(NC(=O)C(=O)NCC(C)(C)CNC(=O)c3ccc(Nc4nc(NC5(c6ccc(Cl)cc6)CC5)nc(OCC(F)(F)F)n4)cc3)nc12 [Compound 3817] | – | – | EC50 [5]: 0.11 nM; EC50 [4]: 0.01 to 10 nM
COC(=O)[C@H](CNC(=O)C(=O)Nc1ccc(C(F)(F)F)nc1)NC(=O)c1ccc(Nc2nc(NC3(c4ccc(Cl)cc4)CC3)nc(OCC(F)(F)F)n2)cc1 [Compound 3716] | – | – | EC50 [5]: 0.62 nM; EC50 [4]: 0.01 to 10 nM
O=C(NC/C(=N/C(=O)c1ccc(Nc2nc(NC3(c4ccc(Cl)cc4)CC3)nc(OCC(F)(F)F)n2)cc1)C(=O)O)C(=O)Nc1ccc(-n2cnc(O)c2O)cc1 [Compound 3163] | – | 0.01 to 10 nM | –
O=C(NC[C@H](NC(=O)c1ccc(Nc2nc(NC3(c4ccc(Cl)cc4)CC3)nc(OCC(F)(F)F)n2)cc1)C(=O)O)C(=O)Nc1ccc(Cn2cccc2)cc1 [Compound 3280] | – | 0.01 to 10 nM | –
O=C(NC[C@H](NC(=O)c1ccc(Nc2nc(NC3(c4ccc(Cl)cc4)CC3)nc(OCC(F)(F)F)n2)cc1)C(=O)O)C(=O)Nc1cn[nH]c1 [Compound 1354] | 0.01 to 10 nM | – | –
Cc1ccc(NC(=O)C(=O)NC(C)(C)CNC(=O)c2ccc(Nc3nc(NC4(c5ccc(Cl)cc5)CC4)nc(OCC(F)(F)F)n3)cc2)cc1Cl [Compound 3441] | – | 0.01 to 10 nM | –
COc1ccc(NC(=O)C(=O)NCC(C)(C)CNC(=O)c2ccc(Nc3nc(NC4(c5ccc(Cl)cc5)CC4)nc(OCC(F)(F)F)n3)cc2F)c(OC)c1 [Compound 3560] | – | 0.01 to 10 nM | –
CC(C)(CNC(=O)C(=O)Nc1cccc2ccccc12)CNC(=O)c1ccc(Nc2nc(NC3(c4ccc(Cl)cc4)CC3)nc(OCC(F)(F)F)n2)cc1 [Compound 3030] | – | 0.01 to 10 nM | –
COc1ccccc1CCNC(=O)C(=O)NC[C@H](NC(=O)c1ccc(Nc2nc(NC3(c4ccc(Cl)cc4)CC3)nc(OCC(F)(F)F)n2)cc1)C(=O)O [Compound 1397] | 0.01 to 10 nM | – | –
Cn1cc(CCNC(=O)C(=O)NC[C@@H](NC(=O)c2ccc(Nc3nc(NC4(c5ccc(Cl)cc5)CC4)nc(OCC(F)(F)F)n3)cc2)C(=O)O)cn1 [Compound 1413] | 0.01 to 10 nM | – | –
COC(=O)[C@H](CCNC(=O)C(=O)N[C@@H](N)C1CC1)NC(=O)c1ccc(Nc2nc(NC3(c4ccc(Cl)cc4)CC3)nc(OCC(F)(F)F)n2)cc1 [Compound 1392] | 0.01 to 10 nM | – | EC50 [6]: 0.14 nM
CCOC(=O)/C=C/c1cccc(NC(=O)C(=O)NCC(C)(C)CNC(=O)c2ccc(Nc3nc(NC4(c5ccc(Cl)cc5)CC4)nc(OCC(F)(F)F)n3)cc2)c1 [Compound 3407] | – | 0.01 to 10 nM | –
CC(C)(CNC(=O)C(=O)Nc1ccc(OC(F)F)cc1)CNC(=O)c1ccc(Nc2nc(NC3(c4ccc(Cl)cc4)CC3)nc(OCC(F)(F)F)n2)cc1F [Compound 3562] | – | 0.01 to 10 nM | EC50 [3]: 0.018 nM
COC(=O)[C@H](CNC(=O)C(=O)Nc1cccc(CCC(N)=O)c1)NC(=O)c1ccc(Nc2nc(NC3(c4ccc(Cl)cc4)CC3)nc(OCC(F)(F)F)n2)cc1 [Compound 3738] | – | – | EC50 [4]: 0.01 to 10 nM
O=C(NC[C@H](NC(=O)c1ccc(Nc2nc(NC3(c4ccc(Cl)cc4)CC3)nc(OCC(F)(F)F)n2)cc1)C(=O)O)C(=O)Nc1cccc(F)c1 [Compound 1357] | 0.01 to 10 nM | – | –
COC(=O)[C@H](CNC(=O)C(=O)NCCc1ccccc1F)NC(=O)c1ccc(Nc2nc(NC3(c4ccc(Cl)cc4)CC3)nc(OCC(F)(F)F)n2)cc1 [Compound 1290] | 0.01 to 10 nM | – | –
Nc1ccc(NC(=O)C(=O)NC[C@H](NC(=O)c2ccc(Nc3nc(NC4(c5ccc(Cl)cc5)CC4)nc(OCC(F)(F)F)n3)cc2)C(=O)O)nc1 [Compound 3761] | – | – | EC50 [4]: 0.01 to 10 nM
COC(=O)[C@H](CCNC(=O)C(=O)Nc1ccc(Oc2cccnc2)cc1)NC(=O)c1ccc(Nc2nc(NC3(c4ccc(Cl)cc4)CC3)nc(OCC(F)(F)F)n2)cc1 [Compound 3324] | – | 0.01 to 10 nM | –
CC(CNC(=O)C(=O)Nc1ccccc1)CNC(=O)c1ccc(Nc2nc(NC3(c4ccc(Cl)cc4)CC3)nc(OCC(F)(F)F)n2)cc1 (stereo not shown) [Compound 3470] | – | 0.01 to 10 nM | –
O=C(NC[C@H](NC(=O)c1ccc(Nc2nc(NC3(c4ccc(Cl)cc4)CC3)nc(OCC(F)(F)F)n2)cc1)C(=O)O)C(=O)NC1CCCC(O)C1 (stereo partly shown) [Compound 1086] | 0.01 to 10 nM | – | –
COC(=O)[C@H](CNC(=O)C(=O)Nc1ccccc1OC)NC(=O)c1ccc(Nc2nc(NC3(c4ccc(Cl)cc4)CC3)nc(OCC(F)(F)F)n2)cc1 [Compound 1256] | 0.01 to 10 nM | – | EC50 [6]: 0.64 nM
COC(=O)[C@H](CNC(=O)C(=O)Nc1cnn(C)c1)NC(=O)c1ccc(Nc2nc(NC3(c4ccc(Cl)cc4)CC3)nc(OCC(F)(F)F)n2)cc1 [Compound 1248] | 0.01 to 10 nM | – | –
